Laboratory results: patent US7998682B2, “Method for assessing atherosclerosis by measuring expression of FOS or DUSP1 in monocytes” (The United States of America as represented by the …, priority 2004, dated 2011)

Columns and labels:
THP1 cells = assay: Monocyte adhesion of PMA-stimulated THP1 cells to plastic substratum; type: cell-based, human
Experimental: (§1) FIGS. 3A-3B are digital images and graphs showing the functional effects of statin and FOS siRNA inhibition on monocyte activation by PMA. FIG. 3A is a bar graph and a digital image wherein THP1 cells were pretreated with simvastatin and/or mevalonate for 20 hours prior to stimulation with 2 nM PMA. Cell adhesion was determined 4 hours after PMA stimulation; cumulative MCP-1 release into medium was assayed 24 hours after PMA stimulation. […] P values for the difference in cell adhesion and MCP-1 release after statin treatment were 0.004 and 0.04, respectively. FIG. 3B is a bar graph and a digital image wherein THP1 cells were stimulated with 2 nM PMA 30 minutes after siRNA transfection for 4 hours. Control (−) cells were mock transfected without siRNA as a transfection control. […]
(§2) Monocyte function: For pretreatment experiments, cells were incubated with 10 μM simvastatin and/or 1 mM mevalonate for 20 hours prior to stimulation with phorbol 12-myristate 13-acetate (PMA, Sigma, St. Louis, Mo.). Cell adhesion was determined by gently washing off the nonadherent cells twice and pooling them. […] Viable nonadherent and adherent cells were counted using Trypan Blue dye. Cumulative MCP-1 release into the medium was determined using the MCP-1 immunoassay kit (R& D Systems, Minneapolis, Minn.) after 24 hours PMA stimulation.

MCP-1 = assay: Cumulative MCP-1 release into medium by PMA-stimulated THP1 cells (immunoassay); type: cell-based, human
Experimental: as §1, §2

FOS protein = FOS protein level by Western blot in PMA-stimulated THP1 cells; type: cell-based, human; conditions: 1 mM mevalonate added with simvastatin, 20 hours before PMA
FOS = assay: RT-PCR of FOS in human monocytic cell lines stimulated with PMA; type: cell-based; conditions: five human monocytic cell lines, 20 nM PMA
Text: FIGS. 2A-2D are digital images and graphs showing expression of FOS in human carotid plaque macrophages and in activated human monocytic cells and ApoE KO mouse splenocytes. FIG. 2A is a digital image of fresh frozen sections of human carotid artery plaques stained with hematoxylin and eosin (H&E), negative control immunoglobulin (Control Ig) and antibodies against CD14 or FOS. CD14+ staining of macrophages colocalizes with FOS immunoreactivity (25× magnification). Note that the CD14 staining gives a more diffuse appearance consistent with cell surface plasma membrance staining while the FOS pattern is more punctate consistent with nuclear localization. For the digital image shown as FIG. 2B, from four patients, the corresponding mononuclear cell (MNC), circulating monocyte (Mono) and carotid plaque purified macrophage (Mac) preparations were used for quantitative RT-PCR. The normalized expression levels shown were obtained as described in FIG. 1A. Note the progressively higher pattern of candidate gene expression associated with increasing concentration of monocytes and activation into macrophages. […] Values expressed as mean±SE, P=0.04. […]
Quantitative real-time RT-PCR: mRNA from lystates (10^5 cells) were purified by binding to poly(dT) magnetic beads (Dynal Biotech Inc. Brown Deer, Wis.) and reverse transcribed using Superscript II (Invitrogen, Carlsbad, Calif.). […]

DUSP1 = assay: RT-PCR of DUSP1 in human monocytic cell lines stimulated with PMA; type: cell-based; conditions: five human monocytic cell lines, 20 nM PMA
[1] = 1 mM mevalonate in medium with simvastatin, 20 hours before PMA

## CCC(C)(C)C(=O)O[C@H]1C[C@@H](C)C=C2C=C[C@H](C)[C@H](CC[C@@H]3C[C@@H](O)CC(=O)O3)[C@H]21 [statins, simvastatin]
THP1 cells; 10 μM simvastatin pretreatment 20 hours, 2 nM PMA, 4 hours after PMA, P=0.004
  reduction in monocyte adhesion to plastic substratum compared to control: approximately 70%
MCP-1; 10 μM simvastatin pretreatment 20 hours, 2 nM PMA, 24 hours after PMA, P=0.04
  reduction in MCP-1 release into medium compared to control: approximately 70%

## CC(O)(CCO)CC(=O)O (stereo not shown) [mevalonate]
THP1 cells; [1]
  effect on statin-induced reduction in monocyte adhesion: specifically reversed
MCP-1; [1]
  effect on statin-induced reduction in MCP-1 release: specifically reversed
FOS protein
  effect on statin-induced reduction in FOS protein: reversed

## CCCCCCCCCCCCCC(=O)O[C@@H]1[C@@H](C)[C@@]2(O)[C@@H](C=C(CO)C[C@]3(O)C(=O)C(C)=C[C@@H]23)[C@@H]2C(C)(C)[C@]12OC(C)=O [PMA, phorbol 12-myristate 13-acetate]
FOS
  FOS expression after PMA stimulation: uniformly induced in all five cell lines
DUSP1
  DUSP1 expression after PMA stimulation: repressed in two of the cell lines
